Test: Radiolysis / stability of [18F]DCFPyL over time by HPLC with radiodetection (RCP, free 18F, radioactive impurities)
Assay type: physicochemical
Method: Those of ordinary skill in the art will be aware of techniques and systems for determining the radiochemical purity of a composition. In some cases, the radiochemical purity is determined using an HPLC associated with a radio-detector. Generally, the radiochemical purity is determined under ambient conditions (e.g., ambient temperature, ambient humidity, ambient light, etc.), such as in samples stored under such conditions.
Stability was assessed using reverse phase HPLC on a C18 column with a phosphate buffer/acetonitrile gradient mobile phase, and the elution profile was monitored using both UV and radiochemical detectors. Samples were analyzed either by direct injection onto the HPLC, dilution and injection or including the addition of tetraethylammonium fluoride (TEAF) into the sample before injection.
Known amounts of free ^18F either alone or spiked with TEAF were injected onto the analytic column and the eluent from the column collected over the course of a chromatogram and assaying the radioactivity using a Capintec. […] Adding TEAF into the analytic samples was incorporated into subsequent studies examining potential radiolysis of [^18F]DCFPyL to overcome some of the limitations of free ^18F quantification.
Analytical HPLC method was used. The method employs UV detection at 264 nm for chemical impurities, and an Eckert & Ziegler model B-FC-1000 gamma detector for radiochemical assays.

[1] = T = 10, 50 mg/mL ascorbic acid pH 5.8, 20% ethanol, 106.5 mCi/mL at EOS
[2] = T = 0.5 hr, 50 mg/mL ascorbic acid pH 5.8 in final product vial, 20% ethanol, 110 mCi/mL at EOS
[3] = T = 0.5 hr, 100 mg/mL ascorbic acid pH 2.0, 256 mCi/mL at EOS
[4] = T = 0.5 hr, 20% ethanol in saline, 52 mCi/mL at EOS
[5] = T = 0.5 hr, 20% ethanol in saline, 65 mCi/mL at EOS
[6] = T = 0.5 hr, 20% ethanol in saline, 85 mCi/mL at EOS
[7] = T = 0.5 hr, control without ascorbic acid, 36% ethanol in saline, 147 mCi/mL at EOS
[8] = T = 1.0 hr, 50 mg/mL ascorbic acid pH 5.8 in final product vial, 20% ethanol, 110 mCi/mL at EOS
[9] = T = 1.0 hr, 100 mg/mL ascorbic acid pH 2.0, 256 mCi/mL at EOS
[10] = T = 1 hr, 20% ethanol in saline, 52 mCi/mL at EOS
[11] = T = 1 hr, 20% ethanol in saline, 65 mCi/mL at EOS
[12] = T = 1 hr, 20% ethanol in saline, 85 mCi/mL at EOS
[13] = T = 1 hr, 100% ethanol, 325 mCi/mL at EOS
[14] = T = 1 hr, control without ascorbic acid, 36% ethanol in saline, 147 mCi/mL at EOS
[15] = T = 1.5 hr (Table 3 prints 1.6 hr), control without ascorbic acid, 36% ethanol in saline, 147 mCi/mL at EOS
[16] = T = 1.5 hr, 50 mg/mL ascorbic acid pH 5.8 in final product vial, 20% ethanol, 110 mCi/mL at EOS
[17] = T = 1.5 hr, 100 mg/mL ascorbic acid pH 2.0, 256 mCi/mL at EOS
[18] = T = 1.5 hr, 20% ethanol in saline, 52 mCi/mL at EOS
[19] = T = 1.5 hr, 20% ethanol in saline, 65 mCi/mL at EOS
[20] = T = 1.5 hr, 20% ethanol in saline, 85 mCi/mL at EOS
[21] = T = 2 hr, 0.5 mg/mL ascorbic acid pH 5.8, 20% ethanol, 105.8 mCi/mL at EOS
[22] = T = 2 hr, 1 mg/mL ascorbic acid pH 5.8, 20% ethanol, 107.0 mCi/mL at EOS
[23] = T = 2 hr, 5 mg/mL ascorbic acid pH 5.8, 20% ethanol, 99.0 mCi/mL at EOS
[24] = T = 2 hr, 20 mg/mL sodium citrate, 20% ethanol, 104.8 mCi/mL at EOS
[25] = T = 2 hr, 50 mg/mL ascorbic acid pH 5.8, 20% ethanol, 139.7 mCi/mL at EOS
[26] = T = 2.0 hr, 50 mg/mL ascorbic acid pH 5.8 in final product vial, 20% ethanol, 110 mCi/mL at EOS
[27] = T = 2.0 hr, 100 mg/mL ascorbic acid pH 2.0, 256 mCi/mL at EOS
[28] = T = 2 hr, 20% ethanol in saline, 52 mCi/mL at EOS
[29] = T = 2 hr, 20% ethanol in saline, 65 mCi/mL at EOS
[30] = T = 2 hr, 20% ethanol in saline, 85 mCi/mL at EOS
[31] = T = 2 hr, 100% ethanol, 325 mCi/mL at EOS
[32] = T = 2 hr, control without ascorbic acid, 36% ethanol in saline, 147 mCi/mL at EOS
[33] = T = 2.5 hr, 50 mg/mL ascorbic acid pH 5.8 in final product vial, 20% ethanol, 110 mCi/mL at EOS

With `O=C(O)CC[C@H](NC(=O)N[C@@H](CCCCNC(=O)c1ccc([18F])nc1)C(=O)O)C(=O)O` [Lot 18F-DCFPyL, 2-(3-{1-carboxy-5-[(6-[18F]fluoro-pyridine-3-carbonyl)-amino]-pentyl}ureido)-pentanedioic acid] the “18F-DCFPyL (% RCP)” value [1] was 99.43%, the “Free F-18” value [1] was 0.57% and the “18F-DCFPyL (RCP)” value [2] was 99.69%. The “RT 5.0 radioactive impurity” value [2] was 0.31%, the “18F-DCFPyL (RCP)” value [3] was 99.60% and the “Free 18F” value [3] was 0.40%. The “18F-DCFPyL (RCP)” value [4] was 99.18%, the “Free F-18” value [4] was 0.36% and the “RT 5.0 radioactive impurity” value [4] was 0.47%. The “18F-DCFPyL (RCP)” value [5] was 96.43%, the “Free F-18” value [5] was 3.17% and the “RT 5.0 radioactive impurity” value [5] was 0.39%. The “18F-DCFPyL (RCP)” value [6] was 96.74%, the “Free F-18” value [6] was 2.92% and the “RT 5.0 radioactive impurity” value [6] was 0.34%. The “18F-DCFPyL (RCP)” value [7] was 90.65%, the “Free F-18” value [7] was 7.73% and the “RT 5.0 radioactive impurity” value [7] was 0.65%. For the same compound, the “RT 5.9 radioactive impurity” value [7] was 0.97%, the “18F-DCFPyL (RCP)” value [8] was 96.73% and the “RT 5.0 radioactive impurity” value [8] was 0.27%. The “18F-DCFPyL (RCP)” value [9] was 98.68%, the “Free 18F” value [9] was 0.31% and the “RT 5.0 radioactive impurity” value [9] was 0.35%. For the same compound, the “RT 12.0 radioactive impurity” value [9] was 0.35%, the “RT 12.2 radioactive impurity” value [9] was 0.31% and the “18F-DCFPyL (RCP)” value [10] was 98.93%. The “Free F-18” value [10] was 0.56%, the “RT 5.0 radioactive impurity” value [10] was 0.51% and the “18F-DCFPyL (RCP)” value [11] was 96.15%. The “Free F-18” value [11] was 3.22%, the “RT 5.0 radioactive impurity” value [11] was 0.36% and the “RT 5.9 radioactive impurity” value [11] was 0.28%. The “18F-DCFPyL (RCP)” value [12] was 96.64%, the “Free F-18” value [12] was 2.98% and the “RT 5.0 radioactive impurity” value [12] was 0.38%. For the same compound, the “18F-DCFPyL (RCP)” value [13] was 96.66%, the “Free F-18” value [13] was 3.34% and the “18F-DCFPyL (RCP)” value [14] was 90.71%. For the same compound, the “Free F-18” value [14] was 7.69%, the “RT 5.0 radioactive impurity” value [14] was 0.48% and the “RT 5.9 radioactive impurity” value [14] was 1.11%. The “18F-DCFPyL (RCP)” value [15] was 89.59%, the “Free F-18” value [15] was 8.78% and the “RT 5.0 radioactive impurity” value [15] was 0.61%. The “RT 5.9 radioactive impurity” value [15] was 1.03%, the “18F-DCFPyL (RCP)” value [16] was 99.61% and the “RT 5.0 radioactive impurity” value [16] was 0.39%. For the same compound, the “RT 5.9 radioactive impurity” value [16] was 0.31%, the “18F-DCFPyL (RCP)” value [17] was 98.58% and the “Free 18F” value [17] was 0.31%. For the same compound, the “RT 5.0 radioactive impurity” value [17] was 0.28%, the “RT 12.0 radioactive impurity” value [17] was 0.46% and the “RT 12.2 radioactive impurity” value [17] was 0.37%. The “18F-DCFPyL (RCP)” value [18] was 98.70%, the “Free F-18” value [18] was 0.80% and the “RT 5.0 radioactive impurity” value [18] was 0.50%. For the same compound, the “18F-DCFPyL (RCP)” value [19] was 95.78%, the “Free F-18” value [19] was 3.55% and the “RT 5.0 radioactive impurity” value [19] was 0.38%. For the same compound, the “RT 5.9 radioactive impurity” value [19] was 0.29%, the “18F-DCFPyL (RCP)” value [20] was 95.06% and the “Free F-18” value [20] was 4.22%. For the same compound, the “RT 5.0 radioactive impurity” value [20] was 0.41%, the “RT 5.9 radioactive impurity” value [20] was 0.31% and the “18F-DCFPyL (% RCP)” value [21] was 98.99%. For the same compound, the “Free F-18” value [21] was 1.01%, the “18F-DCFPyL (% RCP)” value [22] was 98.88% and the “Free F-18” value [22] was 1.12%. For the same compound, the “Free F-18” value (T = 2 hr, 1 mg/mL sodium ascorbate, 20% ethanol, 111.5 mCi/mL at EOS) was 1.89%, the “18F-DCFPyL (% RCP)” value [23] was 99.45% and the “Free F-18” value [23] was 0.55%. The “Free F-18” value (T = 2 hr, 5 mg/mL sodium ascorbate, 20% ethanol, 114.6 mCi/mL at EOS) was 0.89%, the “Free F-18” value [24] was 18.24% and the “RT 3.4 radioactive impurity” value [24] was 0.30%. For the same compound, the “RT 3.7 radioactive impurity” value [24] was 0.31%, the “18F-DCFPyL (% RCP)” value [25] was 100.00% and the “Free F-18” value [25] was 0.00%. The “RT 4.8 radioactive impurity” value (T = 2 hr, 50 mg/mL ascorbic acid pH 5.8, 20% ethanol, 139.7 mCi/mL at EOS, MPA = 0.25% of main peak) was “<MPA”, the “18F-DCFPyL (RCP)” value [26] was 99.67% and the “RT 5.0 radioactive impurity” value [26] was 0.33%. For the same compound, the “RT 5.9 radioactive impurity” value [26] was 0.24%, the “18F-DCFPyL (RCP)” value [27] was 98.35% and the “Free 18F” value [27] was 0.31%. For the same compound, the “RT 5.0 radioactive impurity” value [27] was 0.35%, the “RT 12.0 radioactive impurity” value [27] was 0.52% and the “RT 12.2 radioactive impurity” value [27] was 0.47%. For the same compound, the “18F-DCFPyL (RCP)” value [28] was 98.62%, the “Free F-18” value [28] was 0.91% and the “RT 5.0 radioactive impurity” value [28] was 0.47%. For the same compound, the “18F-DCFPyL (RCP)” value [29] was 95.91%, the “Free F-18” value [29] was 3.78% and the “RT 5.0 radioactive impurity” value [29] was 0.31%. The “18F-DCFPyL (RCP)” value [30] was 95.37%, the “Free F-18” value [30] was 4.00% and the “RT 5.0 radioactive impurity” value [30] was 0.39%. For the same compound, the “RT 5.9 radioactive impurity” value [30] was 0.24%, the “18F-DCFPyL (RCP)” value [31] was 96.38% and the “Free F-18” value [31] was 3.62%. For the same compound, the “18F-DCFPyL (RCP)” value [32] was 89.50%, the “Free F-18” value [32] was 8.67% and the “RT 5.0 radioactive impurity” value [32] was 0.77%. For the same compound, the “RT 5.9 radioactive impurity” value [32] was 1.05%, the “18F-DCFPyL (RCP)” value [33] was 99.63% and the “RT 5.0 radioactive impurity” value [33] was 0.37%. The “RT 5.9 radioactive impurity” value [33] was 0.35%.

Source: patent US20250019350A1, “SYNTHESIS OF THE PROSTATE SPECIFIC MEMBRANE ANTIGEN (PSMA) RADIOLABELED INHIBITOR [18F]DCFPYL” (Progenics Pharmaceuticals, Inc, priority 2023, published 2025)
